Laboratory results published in patent US7041851B2, “Fluorinated phenyl thiophenyl derivatives and their use for imaging serotonin transporters” (The Trustees of the University of Pennsylvania, priority 2002, dated 2006).
Several values for one entry are separate records, joined by “and”; a condition that tells them apart may be missing. Identical values can stand only once.

Test: Organ distribution and brain regional uptake of [18F]ACF in rats

With `CN(C)Cc1ccccc1Sc1cc([18F])c(Cl)cc1N` [[^18F]ACF] the “Organ distribution: Brain” value (30 min after iv injection) was 1.28 ± 0.14 % dose/organ, the “Organ distribution: Heart” value (30 min after iv injection) was 0.18 ± 0.02 % dose/organ and the “Organ distribution: Kidney” value (30 min after iv injection) was 2.64 ± 0.79 % dose/organ. For the same molecule, the “Organ distribution: Liver” value (30 min after iv injection) was 15.20 ± 1.20 % dose/organ, the “Organ distribution: Lung” value (30 min after iv injection) was 1.76 ± 0.20 % dose/organ and the “Organ distribution: Muscle” value (30 min after iv injection) was 10.70 ± 1.68 % dose/organ. The “Organ distribution: Skin” value (30 min after iv injection) was 6.51 ± 0.66 % dose/organ, the “Organ distribution: Spleen” value (30 min after iv injection) was 0.29 ± 0.09 % dose/organ and the “Ratio to Cerebellum: Cerebellum” value (30 min after iv injection) was 1.00 ± 0.00. For the same molecule, the “Ratio to Cerebellum: Cortex” value (30 min after iv injection) was 1.69 ± 0.20, the “Ratio to Cerebellum: Hippocampus” value (30 min after iv injection) was 1.89 ± 0.24 and the “Ratio to Cerebellum: Hypothalamus” value (30 min after iv injection) was 2.29 ± 0.06. The “Ratio to Cerebellum: Remainder” value (30 min after iv injection) was 1.80 ± 0.11, the “Ratio to Cerebellum: Striatum” value (30 min after iv injection) was 2.06 ± 0.19 and the “Regional brain distribution: Cerebellum” value (30 min after iv injection) was 0.37 ± 0.07 % dose/g. For the same molecule, the “Regional brain distribution: Cortex” value (30 min after iv injection) was 0.62 ± 0.07 % dose/g, the “Regional brain distribution: Hippocampus” value (30 min after iv injection) was 0.70 ± 0.06 % dose/g and the “Regional brain distribution: Hypothalamus” value (30 min after iv injection) was 0.85 ± 0.14 % dose/g. For the same molecule, the “Regional brain distribution: Remainder” value (30 min after iv injection) was 0.67 ± 0.09 % dose/g, the “Regional brain distribution: Striatum” value (30 min after iv injection) was 0.76 ± 0.08 % dose/g and the “Organ distribution: Blood” value (60 min after iv injection) was 4.65 ± 0.46 % dose/organ. For the same molecule, the “Organ distribution: Bone” value (60 min after iv injection) was 0.08 ± 0.02 % dose/organ, the “Organ distribution: Brain” value (60 min after iv injection) was 0.69 ± 0.09 % dose/organ and the “Organ distribution: Heart” value (60 min after iv injection) was 0.11 ± 0.01 % dose/organ. For the same molecule, the “Organ distribution: Kidney” value (60 min after iv injection) was 1.38 ± 0.25 % dose/organ, the “Organ distribution: Liver” value (60 min after iv injection) was 10.30 ± 2.50 % dose/organ and the “Organ distribution: Lung” value (60 min after iv injection) was 0.73 ± 0.08 % dose/organ. For the same molecule, the “Organ distribution: Muscle” value (60 min after iv injection) was 7.69 ± 0.29 % dose/organ, the “Organ distribution: Skin” value (60 min after iv injection) was 5.97 ± 1.64 % dose/organ and the “Organ distribution: Spleen” value (60 min after iv injection) was 0.13 ± 0.02 % dose/organ. For the same molecule, the “Ratio to Cerebellum: Cerebellum” value (60 min after iv injection) was 1.00 ± 0.00, the “Ratio to Cerebellum: Cortex” value (60 min after iv injection) was 2.10 ± 0.47 and the “Ratio to Cerebellum: Hippocampus” value (60 min after iv injection) was 2.91 ± 0.64. The “Ratio to Cerebellum: Hypothalamus” value (60 min after iv injection) was 3.53 and 3.53 ± 0.33, the “Ratio to Cerebellum: Remainder” value (60 min after iv injection) was 2.56 ± 0.44 and the “Ratio to Cerebellum: Striatum” value (60 min after iv injection) was 2.88 ± 0.52. For the same molecule, the “Regional brain distribution: Cerebellum” value (60 min after iv injection) was 0.15 ± 0.03 % dose/g, the “Regional brain distribution: Cortex” value (60 min after iv injection) was 0.33 ± 0.13 % dose/g and the “Regional brain distribution: Hippocampus” value (60 min after iv injection) was 0.45 ± 0.13 % dose/g. For the same molecule, the “Regional brain distribution: Hypothalamus” value (60 min after iv injection) was 0.54 ± 0.13 % dose/g, the “Regional brain distribution: Remainder” value (60 min after iv injection) was 0.39 ± 0.03 % dose/g and the “Regional brain distribution: Striatum” value (60 min after iv injection) was 0.45 ± 0.14 % dose/g. For the same molecule, the “Organ distribution: Blood” value (120 min after iv injection) was 3.20 ± 0.57 % dose/organ, the “Organ distribution: Bone” value (120 min after iv injection) was 0.28 ± 0.06 % dose/organ and the “Organ distribution: Brain” value (120 min after iv injection) was 0.21 ± 0.03 % dose/organ. The “Organ distribution: Heart” value (120 min after iv injection) was 0.06 ± 0.01 % dose/organ, the “Organ distribution: Kidney” value (120 min after iv injection) was 0.78 ± 0.15 % dose/organ and the “Organ distribution: Liver” value (120 min after iv injection) was 5.90 ± 1.03 % dose/organ. The “Organ distribution: Lung” value (120 min after iv injection) was 0.32 ± 0.06 % dose/organ, the “Organ distribution: Muscle” value (120 min after iv injection) was 4.02 ± 1.22 % dose/organ and the “Organ distribution: Skin” value (120 min after iv injection) was 2.61 ± 0.17 % dose/organ. The “Organ distribution: Spleen” value (120 min after iv injection) was 0.06 ± 0.02 % dose/organ, the “Ratio to Cerebellum: Cerebellum” value (120 min after iv injection) was 1.00 ± 0.00 and the “Ratio to Cerebellum: Cortex” value (120 min after iv injection) was 1.77 ± 0.04. The “Ratio to Cerebellum: Hippocampus” value (120 min after iv injection) was 2.67 ± 0.15, the “Ratio to Cerebellum: Hypothalamus” value (120 min after iv injection) was 3.23 ± 0.21 and the “Ratio to Cerebellum: Remainder” value (120 min after iv injection) was 2.34 ± 0.09. For the same molecule, the “Ratio to Cerebellum: Striatum” value (120 min after iv injection) was 2.97 ± 0.16, the “Regional brain distribution: Cerebellum” value (120 min after iv injection) was 0.05 ± 0.01 % dose/g and the “Regional brain distribution: Cortex” value (120 min after iv injection) was 0.09 ± 0.01 % dose/g. For the same molecule, the “Regional brain distribution: Hippocampus” value (120 min after iv injection) was 0.14 ± 0.02 % dose/g, the “Regional brain distribution: Hypothalamus” value (120 min after iv injection) was 0.17 ± 0.01 % dose/g and the “Regional brain distribution: Remainder” value (120 min after iv injection) was 0.12 ± 0.01 % dose/g. The “Regional brain distribution: Striatum” value (120 min after iv injection) was 0.15 ± 0.02 % dose/g, the “Organ distribution: Blood” value (240 min after iv injection) was 2.33 ± 0.34 % dose/organ and the “Organ distribution: Bone” value (240 min after iv injection) was 0.27 ± 0.07 % dose/organ. The “Organ distribution: Brain” value (240 min after iv injection) was 0.06 ± 0.01 % dose/organ, the “Organ distribution: Heart” value (240 min after iv injection) was 0.04 ± 0.01 % dose/organ and the “Organ distribution: Kidney” value (240 min after iv injection) was 0.51 ± 0.07 % dose/organ. The “Organ distribution: Liver” value (240 min after iv injection) was 3.55 ± 0.35 % dose/organ, the “Organ distribution: Lung” value (240 min after iv injection) was 0.15 ± 0.02 % dose/organ and the “Organ distribution: Muscle” value (240 min after iv injection) was 2.08 ± 0.05 % dose/organ. The “Organ distribution: Skin” value (240 min after iv injection) was 1.53 ± 0.17 % dose/organ, the “Organ distribution: Spleen” value (240 min after iv injection) was 0.03 ± 0.00 % dose/organ and the “Ratio to Cerebellum: Cerebellum” value (240 min after iv injection) was 1.00 ± 0.00. For the same molecule, the “Ratio to Cerebellum: Cortex” value (240 min after iv injection) was 1.52 ± 0.21, the “Ratio to Cerebellum: Hippocampus” value (240 min after iv injection) was 1.99 ± 0.23 and the “Ratio to Cerebellum: Hypothalamus” value (240 min after iv injection) was 2.37 and 2.37 ± 0.23. The “Ratio to Cerebellum: Remainder” value (240 min after iv injection) was 1.58 ± 0.13, the “Ratio to Cerebellum: Striatum” value (240 min after iv injection) was 2.35 ± 0.05 and the “Regional brain distribution: Cerebellum” value (240 min after iv injection) was 0.02 ± 0.00 % dose/g. The “Regional brain distribution: Cortex” value (240 min after iv injection) was 0.03 ± 0.01 % dose/g, the “Regional brain distribution: Hippocampus” value (240 min after iv injection) was 0.04 ± 0.01 % dose/g and the “Regional brain distribution: Hypothalamus” value (240 min after iv injection) was 0.05 ± 0.00 % dose/g. The “Regional brain distribution: Remainder” value (240 min after iv injection) was 0.03 ± 0.00 % dose/g, the “Regional brain distribution: Striatum” value (240 min after iv injection) was 0.05 ± 0.00 % dose/g and the “Time of peak specific uptake in the hypothalamus region” value (after injection) was 60 to 120 min. The Initial brain uptake (iv) was 1.71±0.45 % dose/g.
